According to patent publication US12091425B2 (AMGEN INC., priority 2016, dated 2024):

Tests used:
[1] = biological target: T1, Mcl-1/Bim interaction, recombinant human Mcl-1 (171-327) (Homo sapiens, UniProt Q07820); assay: Cell free Mcl-1: Bim Affinity Assay (Mcl-1 HTRF); assay type: binding
T1 construct: made in house
Outline: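 Displacement of biotinylated Bim 51-76 peptide is followed by TR-FRET. Incubation runs overnight. Duplicate points are fitted with a four-parameter sigmoid to yield IC50.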

[2] = tested on: OPM-2 human multiple myeloma cell line; assay: Cell Viability Assay (OPM-2 10 FBS); assay type: cell-based; details: OPM-2 cells, CellTiter-Glo
Experimental: Cell Viability Assay (OPM-2 10 FBS)
Cells were seeded into 384-well plates at 3000 cells/well density in complete growth medium containing 10% FBS, and incubated for 16 h with serially diluted test compounds in a 37° C. incubator with 5% CO2. Cell viability was tested using CellTiter-Glo® assay (Promega, Madison, WI) according to the manufacturer recommendations. Luminescence was determined using an EnVision® Multilabel plate reader 25 min after the addition of detection reagent. IC50 values were then calculated with Xlfit using a logistical 4-parameter fit model in GraphPad Prism (GraphPad Software, San Diego, CA) or in Genedata Screener® (Genedata, Basel, Switzerland).

[3] = TR-FRET, 0.1 nM Mcl-1 (171-327), 0.05 nM biotin-Bim (51-76)
[4] = Homo sapiens, OPM-2, 16 h, 16 h
[5] = Homo sapiens, OPM-2, 16 h, 16 h incubation
[6] = cell free Mcl-1:Bim TR-FRET, recombinant human Mcl-1 (171-327)

T1 sequence (Q07820 171-327): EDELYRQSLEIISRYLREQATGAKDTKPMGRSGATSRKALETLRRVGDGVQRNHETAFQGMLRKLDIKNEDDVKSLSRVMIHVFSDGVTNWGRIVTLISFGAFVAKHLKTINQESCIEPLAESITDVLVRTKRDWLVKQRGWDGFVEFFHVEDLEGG

Row | IC50 [1, 3] [nM] | IC50 [2, 4] [nM] | SMILES | IC50 ([2]; 16 h) [nM] | further results
1 | 0.185 | 220 | C[C@@H]1[C@@H](C)C/C=C/[C@H](OCC(=O)N2CCOCC2)[C@@H]2CC[C@H]2CN2C[C@@]3(CCCc4cc(Cl)ccc43)COc3ccc(cc32)C(=O)NS1(=O)=O [Example 313, (1S,3′R,6′R,7′S,8′E,11′S,12′R)-6-chloro-11′,12′-dimethyl-7′-(2-(4-morpholinyl)-2-oxoethoxy)-3,4-dihydro-2H,15′H-spiro[naphthalene-1,22′-[20]oxa[13]thia[1,14]diazatetracyclo[14.7.2.0^3,6.0^19,24]pentacos [8,16,18,24]tetraen]-15′-one 13′,13′-dioxide] |  | 
2 | 0.994 |  | CCN1C(C)C/C=C\[C@H](O)[C@@H]2CC[C@H]2CN2C[C@@]3(CCCc4cc(Cl)ccc43)COc3ccc(cc32)C(=O)NS1(=O)=O (single isomer, unassigned) [Example 58] | 1180 | 
3 | 0.168 | 8160 | O=C(O)CCN1CC/C=C/[C@H](O)[C@@H]2CC[C@H]2CN2C[C@@]3(CCCc4cc(Cl)ccc43)COc3ccc(cc32)C(=O)NS1(=O)=O [Example 33, 3-((1S,3′R,6′R,7′S,8′E)-6-chloro-7′-hydroxy-13′,13′-dioxido-15′-oxo-3,4-dihydro-2H,12′H-spiro[naphthalene-1,22′-[20]oxa[13]thia[1,12,14]triazatetracyclo[14.7.2.0^3,6.0^19,24]pentacosa[8,16,18,24]tetraen]-12′-yl)propanoic Acid] |  | 
4 | 0.462 | 971 | O=C1NS(=O)(=O)N(CC2COC2)CC/C=C/[C@H](O)[C@@H]2CC[C@H]2CN2C[C@@]3(CCCc4cc(Cl)ccc43)COc3ccc1cc32 [Example 40, (1S,3′R,6′R,7′S,8′E)-6-chloro-7′-hydroxy-12′-(3-oxetanylmethyl)-3,4-dihydro-2H,15′H-spiro[naphthalene-1,22′-[20]oxa[13]thia[1,12,14]triazatetracyclo[14.7.2.0^3,6.0^19,24]pentacosa[8,16,18,24]tetraen]-15′-one 13′,13′-dioxide] |  | 
5 | 4.37 |  | CC1C/C=C/[C@@H](O)[C@@H]2CC[C@H]2CN2C[C@@]3(CCCc4cc(Cl)ccc43)COc3ccc(cc32)C(=O)NS(=O)(=O)C1 (stereo in doubt) [Example 1088, (1S,3′R,6′R,7′R,8′E,11′S)-6-chloro-7′-hydroxy-11′-(methyl)-3,4-dihydro-2H,15′H-spiro [naphthalene-1,22′-[20]oxa[13]thia[1,14]diazatetracyclo[14.7.2.0^3,6.0^19,24]pentacosa [8,16,18,24]tetraen]-15′-one 13′,13′-dioxide] |  | IC50 [2, 5]: 8980 nM
6 | 3.93 | 1810 | C[C@@H]1C/C=C\[C@H](O)[C@@H]2CC[C@H]2CN2C[C@@]3(CCCc4cc(Cl)ccc43)COc3ccc(cc32)C(=O)NS(=O)(=O)N1C[C@@H]1CCCO1 (single isomer, unassigned) [Example 52] |  | 
7 | 2.73 | 18600 | O=C1NS(=O)(=O)[C@H]2C[C@H](/C=C/[C@H](O)[C@@H]3CC[C@H]3CN3C[C@@]4(CCCc5cc(Cl)ccc54)COc4ccc1cc43)C2 [Example 102, (1S,3′R,6′R,7′S,8′E,10′R,12′S)-6-chloro-7′-hydroxy-3,4-dihydro-2H,15′H-spiro[naphthalene-1,22′-[20]oxa[13]thia[1,14]diazapentacyclo[14.7.2.1^10,12.0^3,6.0^19,24]hexacosa[8,16,18,24]tetraen]-15′-one 13′,13′-dioxide] |  | 
8 | 1.55 | 1280 | CCN(CC)S(=O)(=O)CCN1CC/C=C/[C@H](O)[C@@H]2CC[C@H]2CN2C[C@@]3(CCCc4cc(Cl)ccc43)COc3ccc(cc32)C(=O)NS1(=O)=O [Example 35, 2-((1S,3′R,6′R,7′S,8′E)-6-chloro-7′-hydroxy-13′,13′-dioxido-15′-oxo-3,4-dihydro-2H,12′H-spiro[naphthalene-1,22′-[20]oxa[13]thia[1,12,14]triazatetracyclo[14.7.2.0^3,6.0^19,24]pentacosa[8,16,18,24]tetraen]-12′-yl)-N,N-diethylethanesulfonamide] |  | 
9 | 10.9 |  | C[C@H]1CCCS(=O)(=O)NC(=O)c2ccc3c(c2)N(C[C@@H]2CC[C@H]2[C@@H](O)C1)C[C@@]1(CCCc2cc(Cl)ccc21)CO3 (single isomer, unassigned) [Example 243] | 12100 | 
10 | 0.614 | 2570 | CS(=O)(=O)CCN1CC/C=C\[C@H](O)[C@@H]2CC[C@H]2CN2C[C@@]3(CCCc4cc(Cl)ccc43)COc3ccc(cc32)C(=O)NS1(=O)=O [Example 37, (1S,3′R,6′R,7′S,8′Z)-6-chloro-7′-hydroxy-12′-(2-(methylsulfonyl)ethyl)-3,4-dihydro-2H,15′H-spiro[naphthalene-1,22′-[20]oxa[13]thia[1,12,14]triazatetracyclo[14.7.2.0^3,6.0^19,24]pentacosa[8,16,18,24]tetraen]-15′-one 13′,13′-dioxide] |  | 

Continued, compound first:

Row | SMILES | IC50 [1, 3] [nM] | IC50 [2, 4] [nM] | IC50 ([2]; 16 h) [nM] | further results
11 | CC[C@@H]1CC/C=C/[C@H](OCc2ncco2)[C@@H]2CC[C@H]2CN2C[C@@]3(CCCc4cc(Cl)ccc43)COc3ccc(cc32)C(=O)NS1(=O)=O [Example 986, (1S,3′R,6′R,7′S,8′E,12′R)-6-chloro-12′-ethyl-7′-(1,3-oxazol-2-ylmethoxy)-3,4-dihydro-2H,15′H-spiro[naphthalene-1,22′-[20]oxa[13]thia[1,14]diazatetracyclo[14.7.2.0^3,6.0^19,24]pentacosa [8,16,18,24]tetraen]-15′-one 13′,13′-dioxide] | 0.476 |  |  | IC50 [2, 5]: 270 nM
12 | CO[C@H]1/C=C\CC[C@@H](C[C@@H](C)O)S(=O)(=O)NC(=O)c2ccc3c(c2)N(C[C@@H]2CC[C@H]21)C[C@@]1(CCCc2cc(Cl)ccc21)CO3 (single isomer, unassigned) [Example 543] |  |  | 699 | IC50 [1, 6]: 0.535 nM
13 | CC(C)(C)S(=O)(=O)CC[C@H]1CC/C=C/[C@H](O)[C@@H]2CC[C@H]2CN2C[C@@]3(CCCc4cc(Cl)ccc43)COc3ccc(cc32)C(=O)NS1(=O)=O (single isomer, unassigned) [Example 155] | 0.846 |  | 11600 | 
14 | C[C@@H]1[C@@H](C)C/C=C/[C@H](OCCN2CCOCC2=O)[C@@H]2CC[C@H]2CN2C[C@@]3(CCCc4cc(Cl)ccc43)COc3ccc(cc32)C(=O)NS1(=O)=O [Example 727, (1S,3′R,6′R,7′S,8′E,11′S,12′R)-6-chloro-11′,12′-dimethyl-7′-(2-(3-oxo-4-morpholinyl)ethoxy)-3,4-dihydro-2H,15′H-spiro[naphthalene-1,22′-[20]oxa[13]thia[1,14]diazatetracyclo[14.7.2.0^3,6.0^19,24]pentacosa [8,16,18,24]tetraen]-15′-one-13′, 13′-dioxide] |  | 147 |  | IC50 [1, 6]: 0.365 nM
15 | C[C@@H]1[C@@H](C)C/C=C/[C@H](OCCN2CCCC2=O)[C@@H]2CC[C@H]2CN2C[C@@]3(CCCc4cc(Cl)ccc43)COc3ccc(cc32)C(=O)NS1(=O)=O [Example 730, (1S,3′R,6′R,7′S,8′E,11′5,12′R)-6-chloro-11′,12′-dimethyl-7′-(2-(2-oxo-1-pyrrolidinyl)ethoxy)-3,4-dihydro-2H,15′H-spiro[naphthalene-1,22′-[20]oxa[13]thia[1,14]diazatetracyclo[14.7.2.0^3,6.0^19,24]pentacosa [8,16,18,24]tetraen]-15′-one-13′, 13′-dioxide] |  | 157 |  | IC50 [1, 6]: 0.307 nM
16 | C[C@@H](O)C[C@@H]1CC/C=C/[C@H](O)[C@@H]2CC[C@H]2CN2C[C@@]3(CCCc4cc(Cl)ccc43)COc3ccc(cc32)C(=O)NS1(=O)=O (single isomer, unassigned) [Example 544] |  |  | 1520 | IC50 [1, 6]: 0.193 nM
17 | C[C@@H]1[C@@H](C)S(=O)(=O)NC(=O)c2ccc3c(c2)N(C[C@@H]2CC[C@H]2[C@@H](OCCN2CCOCC2)/C=C/[C@@H]1C)C[C@@]1(CCCc2cc(Cl)ccc21)CO3 [Example 1049, (1S,3′R,6′R,7′S,8′E,10′S,11′S,12′R)-6-chloro-10′,11′,12′-trimethyl-7′-(2-(4-morpholinyl)ethoxy)-3,4-dihydro-2H,15′H-spiro[naphthalene-1,22′-[20]oxa[13]thia[1,14]diazatetracyclo[14.7.2.0^3,6.0^19,24]pentacosa [8,16,18,24]tetraen]-15′-one 13′,13′-dioxide] | 0.264 |  |  | IC50 [2, 5]: 126 nM
18 | CCC1CCC=CC(OC(C)C(=O)OC)C2CCC2CN2CC3(CCCc4cc(Cl)ccc43)COc3ccc(cc32)C(=O)NS1(=O)=O (mixture of isomers) [Example 1004] | 0.635 |  |  | IC50 ([2]; 16 h incubation): 23.6 nM
19 | CC(C)OC(=O)C[C@@H]1[C@@H](C)C/C=C\[C@H](O)[C@@H]2CC[C@H]2CN2C[C@@]3(CCCc4cc(Cl)ccc43)COc3ccc(cc32)C(=O)NS1(=O)=O [Example 568] |  |  | 1310 | IC50 [1, 6]: 1.1 nM
20 | COCC[C@H]1/C=C/[C@H](OC)[C@@H]2CC[C@H]2CN2C[C@@]3(CCCc4cc(Cl)ccc43)COc3ccc(cc32)C(=O)NS(=O)(=O)[C@H](C)C1 [Example 204, (1S,3′R,6′R,7′S,8′E,10′R,12′R)-6-chloro-7′-methoxy-10′-(2-methoxyethyl)-12′-methyl-3,4-dihydro-2H,15′H-spiro[naphthalene-1,22′-[20]oxa[13]thia[1,14]diazatetracyclo[14.7.2.0^3,6.0^19,24]pentacosa [8,16,18,24]tetraen]-15′-one 13′,13′-dioxide] | 0.732 | 686 |  | 
